A melting point compilation (Tetko et al.)

| Structure (SMILES) | melting point [°C] |
| --- | --- |
| c1ccc(CN(Cc2ccccc2)Cn2nnc3ccccc32)cc1 | 118 to 120 |
| O=C(O)C1(S(=O)(=O)c2ccc(Cl)cc2)CC1 | 185 to 187 |
| NCC(O)COc1ccc(F)cc1 (stereo not given) | 71 to 73 |
| CC(=O)NC(CC(=O)O)c1ccc(F)cc1F (stereo not given) | 149 to 151 |
| CCc1ccccc1NC(=O)CC(C)=O | 89 to 91 |
| CN(C)c1ccc(S(=O)(=O)N(C)C)cc1N | 143 to 145 |
| O=C(NCc1ccc(F)cc1)C1CCNCC1 | 139 to 141 |
| Nc1ccc(CN2C(=O)Cc3ccc(Cl)cc32)cc1 | 129 to 131 |
| Cc1nnc(S)n1CCS(C)(=O)=O | 193 to 195 |
| Nc1ccc(S(=O)(=O)Nc2ccc(Cl)cc2)cc1 | 180 to 182 |
| CC1(C)COC2(CCNCC2)OC1 | 62 to 64 |
| CC(C)(C)OC(=O)N1CCCC(C(C)(C)C(=O)O)C1 (stereo not given) | 96 to 98 |
| Cc1c(NC(=O)CCCl)c(=O)n(-c2ccccc2)n1C | 207 to 209 |
| CCc1c(C(=O)O)[nH]c(C)c1C(C)=O | 202 to 204 |
| CN1CCN(S(N)(=O)=O)C(c2ccccc2)C1 (stereo not given) | 109 to 111 |
| COc1ccc(N)cc1OCC(=O)NC1CC1 | 87 to 89 |
| CN1CCC(N(C)c2ccc(N)cc2)CC1 | 62 to 64 |
| O=C(c1c[nH]c(=O)[nH]1)N1CCNCC1 | 269 to 271 |
| CN(C)C(N)=S | 144 to 146 |
| CCOC(=O)c1c[nH]n(C)c1=N | 95 to 97 |
| CC1CN(c2ccccc2N)CC(C)O1 (stereo not given) | 83 to 85 |
| CCCc1[nH]nc(C(=O)O)c1[N+](=O)[O-] | 158 to 160 |

| Structure (SMILES) | melting point [°C] |
| --- | --- |
| COC(=O)c1cc(S(=O)(=O)N2CCOCC2)ccc1Cl | 74 to 76 |
| CC(C)(C)OC(=O)NNC(=O)OC(C)(C)C | 123 to 126 |
| CC(C)(CC(=O)O)CC(=O)N1CCOCC1 | 80 to 82 |
| CC1(CO)CCN(Cc2ccccc2)CC1 | 59 to 61 |
| O=C(O)CCCCN1C(=O)C=CC1=O | 84 to 86 |
| Cc1nc2nnnn2c(C)c1CCC(=O)O | 187 to 189 |
| CNCc1nnn[nH]1 | 224 to 226 |
| CNS(=O)(=O)c1ccc(C#N)cc1 | 128 to 130 |
| COC(=O)c1n[nH]c(C)c1Cl | 129 to 131 |
| CC(C)(C)c1ccc(S(=O)(=O)Cl)s1 | 47 to 49 |
| CS(=O)(=O)c1ccc2c(c1)NC(=O)CO2 | 229 to 231 |
| Brc1ccccc1Oc1cccnn1 | 109 to 111 |
| COc1ccc(F)cc1[N+](=O)[O-] | 62 to 64 |
| CN(C(=O)OC(C)(C)C)c1ccc(C(=N)N)cc1 | 142 to 144 |
| NC(=O)c1cc(S(=O)(=O)NCC(=O)O)c[nH]1 | 279 to 281 |
| CCOCCS(=O)(=O)NCC(=O)O | 63 to 65 |
| O=C(O)CN1C(=O)C2CC=CCC2C1=O (stereo not given) | 83 to 85 |
| NNC(=O)NCc1cccc(C(F)(F)F)c1 | 86 to 88 |
| CC1C(O)CC2CC1C2(C)C (stereo not given) | 51 to 53 |
| Nc1cc(Cl)c(OCC(F)(F)F)c(Cl)c1 | 89 to 91 |
| CC(C)c1nnc(CCC(=O)O)o1 | 84 to 86 |
| Cc1ccc(S(=O)(=O)N(CCC(=O)O)c2ccccc2)cc1 | 145 to 147 |

| Structure (SMILES) | melting point [°C] |
| --- | --- |
| CNS(=O)(=O)c1ccc(/C=C/C(=O)O)cc1 | 259 to 261 |
| OC1CC(c2ccc(Br)cc2)C1 (stereo not given) | 59 to 61 |
| O=C1c2ccccc2C(=O)N1CC1(CO)CCCC1 | 83 to 85 |
| CC(C)c1cnc(S)n1C1CC1 | 175 to 177 |
| CC(C)(C)OC(=O)NC1CN(c2ccccc2)C1=O (stereo not given) | 167 to 169 |
| N#Cc1ccc(OC(F)F)c(N)c1 | 86 to 88 |
| CN(CC(=O)NC1CC1)C(=O)CCl | 113 to 115 |
| Clc1ccc(N2CCOCC2)nn1 | 131 to 133 |
| Cc1cc(C#N)ccc1CO | 66 to 68 |
| O=C(O)C1CCCN(c2ccc(Cl)nn2)C1 (stereo not given) | 179 to 181 |
| CC(=O)Nc1ccc(CO)cc1 | 117 to 119 |
| CN1C(=O)c2ccc(NC(=O)CCl)cc2C1=O | 203 to 205 |
| O=C(O)CCC1CCNCC1 | 275 to 277 |
| N#CC(O)c1ccc([N+](=O)[O-])cc1 (stereo not given) | 109 to 111 |
| COc1ccc(NC(=O)OCC(F)(F)F)cn1 | 86 to 88 |
| CC(Cl)C(=O)NC1CCCC(C)C1C (stereo not given) | 163 to 165 |
| O=C(O)C1CCN(S(=O)(=O)c2ccc3c(c2)CCCC3)CC1 | 181 to 183 |
| O=[N+]([O-])c1cc(S(=O)(=O)C(F)F)ccc1Cl | 71 to 73 |
| Cn1c(N)nnc1S | 278 to 280 |
| CC(C)(C)c1ccc(C(C)(C)C(=O)O)cc1 | 165 to 167 |

Second part, the compound after the results:

| melting point [°C] | Structure (SMILES) |
| --- | --- |
| 164 to 166 | Nc1ccc(S(=O)(=O)N2CCCC2)cc1 |
| 220 to 222 | O=C(CCl)Nc1cccc(C(=O)O)c1 |
| 120 to 124 | O=C1C=CC(=O)N1c1ccc2ccccc2c1 |
| 169 to 171 | Nc1cnn(-c2cnc3ccccc3n2)c1 |
| 312 to 314 | COc1ccc(-n2c(S)nc3sc4c(c3c2=O)CCCC4)cc1 |
| 134 to 136 | O=C1C=CC(=O)N1c1cccc2cnccc12 |
| 230 to 232 | Nn1cnc2ccc(Br)cc2c1=O |
| 129 to 131 | CC1CCCN(S(=O)(=O)c2ccc(N)cc2)C1 (stereo not given) |
| 246 to 248 | O=Cc1c(-c2ccccc2)n(-c2ccccc2)c2ccccc12 |
| 133 to 135 | NNC(=O)c1ccc2ccccc2n1 |
| 230 to 232 | CS(=O)(=O)N1CCc2cc(C(=O)O)ccc21 |
| 158 to 160 | COc1ccc(C)cc1-n1ccc(C(=O)O)n1 |
| 115 to 117 | CC(=O)N(c1ccc(C(F)(F)F)cc1)c1nc(CCl)cs1 |
| 143 to 145 | Nc1ccnc(Cc2ccccc2)n1 |
| 94 to 96 | NC(=O)CCOc1cccc(F)c1 |
| 129 to 131 | Nc1ncc(Cc2ccc(Br)cc2)s1 |
| 281 to 283 | CS(=O)(=O)Nc1nc2ccc(N)cc2s1 |
| 77 to 79 | COC(=O)c1csc([N+](=O)[O-])c1 |
| 100 to 102 | NC(=O)c1ccc(C=O)cc1 |
| 141 to 143 | Nc1nc2ccccc2nc1Cl |
| 81 to 83 | Cc1cc(Cl)c2cc(OC(F)F)ccc2n1 |

| melting point [°C] | Structure (SMILES) |
| --- | --- |
| 89 to 91 | O=C(COc1ccc(F)cc1)N1CCNCC1 |
| 175 to 177 | O=c1c2ccccc2nc(S)n1CCCN1CCOCC1 |
| 111 to 115 | O=c1c(Cl)c(Cl)cnn1-c1ccc(C(F)(F)F)cn1 |
| 104 to 106 | O=C(CCCl)Nc1ccccn1 |
| 63 to 65 | CC(C)c1cccc(C(=O)O)n1 |
| 119 to 121 | O=C1CCCc2sccc2N1 |
| 105 to 107 | C=CCNC(=O)c1ccc(Cl)nc1 |
| 219 to 221 | NNc1nc2cc(C(F)(F)F)ccc2s1 |
| 228 to 230 | COC(=O)Cn1cnc2c(N)ncnc21 |
| 286 to 288 | Oc1ccnc2cc(Br)ccc12 |
| 104 to 106 | CCOc1ccc(OCCCC(=O)O)cc1 |
| 214 to 216 | NC(=O)c1ccc(OCCC(=O)O)cc1 |
| 256 to 258 | NC(=O)c1ccc(N)nn1 |
| 44 to 46 | COc1ncccc1NC(=O)OCC(F)(F)F |
| 66 to 68 | CS(=O)(=O)c1cccc(C(=O)c2ccc(F)cc2)c1 |
| 225 to 227 | O=C1CSC(c2ccc(F)cc2)N1C1CC1 (stereo not given) |
| 208 to 210 | Cc1cc2ncc(S(C)(=O)=O)c(N)n2n1 |
| 199 to 201 | O=C(O)C=Cc1ccc(S(=O)(=O)N2CCc3ccccc32)cc1 |
| 132 to 134 | O=C(O)c1ccc2cccnn12 |
| 178 to 180 | CS(=O)(=O)N1CCN(c2ccc(N)cn2)CC1 |
| 182 to 184 | Cc1ccc(/C=C/C(=O)O)c(C)c1 |

| melting point [°C] | Structure (SMILES) |
| --- | --- |
| 89 to 91 | Cc1nn(-c2ccccc2)c(Cl)c1CO |
| 197 to 199 | COC(=O)C(C#N)c1nc2ccccc2nc1Cl (stereo not given) |
| 168 to 170 | NC(=O)c1cc(N2CCCCC2)ccc1N |
| 99 to 101 | CC(O)(C(=O)O)c1cccc(F)c1 (stereo not given) |
| 230 to 232 | O=c1[nH]c(CCl)nc2scc(-c3ccco3)c12 |
| 166 to 168 | Nc1ccc(-c2nnc(O)o2)cc1 |
| 27 to 30 | Cc1cccc(C)c1C=O |
| 153 to 155 | O=C(O)c1ccnc(OC2CCC2)c1 |
| 149 to 151 | Cc1ccc2cccnc2c1S(=O)(=O)Cl |
| 168 to 170 | CCOC(=O)c1[nH]ncc1C=O |
| 74 to 76 | Nc1cc2c(cc1Sc1ccccc1)OCCO2 |
| 253 to 255 | CCc1cc2c(=O)[nH]c(N3CCCC3)nc2s1 |
| 239 to 241 | CC(=O)c1c[nH]c2cc(Br)ccc12 |
| 169 to 171 | Nc1ncn(Cc2ccc(Br)cc2)n1 |
| 38 to 42 | O=Cc1sc(Cl)nc1Cl |
| 242 to 244 | O=C(O)c1ccc2noc(-c3ccccc3)c2c1 |
| 113 to 115 | COc1ccc(OC)c(-c2csc(N)n2)c1 |
| 62 to 64 | CSc1nc2ncccc2o1 |
| 151 to 153 | CCc1cc(=O)[nH]c(-c2cccnc2)n1 |
| 278 to 280 | O=C(O)c1ccc(-c2cscn2)cc1 |
| 148 to 150 | CCc1c(C)nc2ccccc2c1N |

| melting point [°C] | Structure (SMILES) |
| --- | --- |
| 254 to 256 | O=C(O)c1ccc(OCC2CC2)cc1 |
| 47 to 49 | Cc1c([N+](=O)[O-])cccc1S(=O)(=O)Cl |
| 161 to 163 | O=C(Nc1cc[nH]n1)c1ccccc1 |
| 49 to 51 | O=Cc1cccc(Br)c1OC(F)F |
| 114 to 116 | Cc1nc(N)nc(C2CC2)n1 |
| 72 to 74 | NCC1CCN(c2ccncc2)CC1 |
| 227 to 229 | N#Cc1ccnc(S)c1 |
| 130 to 132 | Cc1ccc(C(=O)Nc2cccc(C=O)c2)cc1 |
| 165 to 167 | O=C(CCl)Nc1ccc([N+](=O)[O-])cc1Br |
| 91 to 93 | COc1ccc(C#N)c(N)c1 |
| 103 to 105 | O=C1OC(CCl)CN1c1ccccc1 (stereo not given) |
| 51 to 53 | Clc1c(Br)ccc2ccccc12 |
| 197 to 199 | O=Cc1csc(-c2ncccn2)n1 |
| 58 to 60 | CN(C)Cc1ccnc(N)c1 |
| 129 to 131 | COc1ccc(Cn2cnc(N)n2)cc1 |
| 65 to 67 | CC(C)(CO)N1C(=O)c2ccccc2C1=O |
| 174 to 176 | NS(=O)(=O)c1ccc([N+](=O)[O-])nc1 |
| 189 to 191 | Cc1cc2ccn(C)c2c(=O)[nH]1 |
